# Test results: patent US20100247427A1, “Methods of inhibiting cell growth and methods of enhancing radiation responses” (University of South Florida, priority 2005, published 2010)
# How the values were obtained:
# DU145 cells = experiment: TUNEL assay for apoptosis; format: cell-based, Human; conditions: Cisplatin plus radiation; FIG. 5
# Protocol: TUNEL assay. Cells were labeled for apoptotic DNA strand breaks by terminal deoxyribonucleotidyl transferase-mediated dUTP nick end labeling (TUNEL) reaction using a flow cytometry assay (Roche Applied Science, Indianapolis, Ind.) according to the instructions of the supplier. DU145 cells were treated with CPA-7 for 4 hours, then irradiated, and subjected to the TUNEL assay 24 to 48 hours later. To determine cellular viability, cells were harvested by trypsinization and counted by trypan blue exclusion assay at 24 and 48 hours after irradiation. All experiments were done in triplicate.
# The enhancement of radiation responsiveness was also evident when apoptosis was measured using a TUNEL assay (FIGS. 4 and 5). DU145 cells were pre-treated for 4 hours with CPA-7 or vehicle alone prior to radiation. A TUNEL assay was performed 24 hours post-radiation and the results are depicted in FIG. 4. At 24 hours, only 2% of untreated cells had undergone spontaneous apoptosis. […] In contrast, 15.7% of cells treated with both radiation and CPA-7 had undergone apoptosis at 24 hours, indicative of a synergistic effect. FIG. 5 depicts the results of a similar assay in which cells were pre-treated with CPA-7 for 24 hours prior to irradiation. […] Additionally, not all platinum complexes have this effect.
# Stat3 = Stat3 (Homo sapiens, UniProt P40763); conditions: other reports; cited from earlier work
# Sequence of Stat3 (P40763 whole entry, species assumed): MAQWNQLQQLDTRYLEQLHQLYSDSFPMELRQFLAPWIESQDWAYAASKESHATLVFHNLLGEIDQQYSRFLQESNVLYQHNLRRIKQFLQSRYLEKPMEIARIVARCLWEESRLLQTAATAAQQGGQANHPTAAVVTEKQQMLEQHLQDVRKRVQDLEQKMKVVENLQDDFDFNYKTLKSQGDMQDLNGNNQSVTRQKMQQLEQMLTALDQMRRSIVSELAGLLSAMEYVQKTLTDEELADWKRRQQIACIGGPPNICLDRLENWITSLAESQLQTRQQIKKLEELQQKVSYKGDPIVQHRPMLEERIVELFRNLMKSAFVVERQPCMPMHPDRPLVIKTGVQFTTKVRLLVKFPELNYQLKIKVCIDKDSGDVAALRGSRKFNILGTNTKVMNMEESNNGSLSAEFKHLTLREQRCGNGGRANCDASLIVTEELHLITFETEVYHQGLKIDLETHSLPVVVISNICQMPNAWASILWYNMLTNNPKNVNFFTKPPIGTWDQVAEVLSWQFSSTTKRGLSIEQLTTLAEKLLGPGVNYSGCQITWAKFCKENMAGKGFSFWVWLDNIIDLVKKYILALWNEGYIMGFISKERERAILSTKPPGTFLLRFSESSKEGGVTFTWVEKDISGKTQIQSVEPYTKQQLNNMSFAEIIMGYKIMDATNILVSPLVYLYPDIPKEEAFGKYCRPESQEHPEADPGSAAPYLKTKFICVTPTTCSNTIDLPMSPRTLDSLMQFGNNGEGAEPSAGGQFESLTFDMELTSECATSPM
smiles,measurement,setting,value
N.N.[Cl][Pt][Cl] [Cisplatin],apoptosis rate in combination with radiation (TUNEL),DU145 cells,not significantly enhanced
same,modulation of Stat3 activation,Stat3,does not modulate Stat3 activation
